Measured values published in patent US7384954B2 (priority 2003, dated 2008).

Target: α7 nAChR subtype (Rattus norvegicus, UniProt Q05941)
Assay type: binding
Conditions: read-out: KD of radioligand from saturation curves

Chain of α7 nAChR subtype (Q05941 23-502 limits assumed): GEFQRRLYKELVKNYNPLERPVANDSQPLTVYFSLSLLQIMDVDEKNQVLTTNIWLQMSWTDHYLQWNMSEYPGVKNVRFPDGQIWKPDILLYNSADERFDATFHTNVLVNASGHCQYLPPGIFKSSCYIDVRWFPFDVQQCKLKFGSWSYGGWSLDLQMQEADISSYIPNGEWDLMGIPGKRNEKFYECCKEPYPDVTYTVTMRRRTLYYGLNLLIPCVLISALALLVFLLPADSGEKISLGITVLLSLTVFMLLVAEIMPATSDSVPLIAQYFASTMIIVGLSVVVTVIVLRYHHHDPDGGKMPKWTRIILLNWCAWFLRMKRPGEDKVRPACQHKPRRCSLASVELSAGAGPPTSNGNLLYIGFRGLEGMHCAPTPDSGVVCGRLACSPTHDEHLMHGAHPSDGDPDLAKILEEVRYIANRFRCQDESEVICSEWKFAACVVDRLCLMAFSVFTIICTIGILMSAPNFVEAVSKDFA

125I-α-Bungarotoxin [[^125I]-α-BTX] was tested, and the Kd was 1.67 nM.
